Where two headings read alike, the source gives them in different places.

The results in this text go back to patent publication US12209180B2, “Bis-octahydrophenanthrene carboxamide derivatives and protein conjugates thereof for use as LXR agonists” (REGENERON PHARMACEUTICALS, INC., priority 2018, dated 2025).

The test system of series [1] is T1, LXR.
T1 construct: EC50 (M); S/N; other: differentiate
The series can be described thus: Cell-based LXR luciferase reporter assay, LXR agonists (Example 16a). On the set-up: species or system human. Particulars: Table 5a; for EC50: differentiated THP-1/LXR-Luc cells, 48 h; for S/N: highest RLU on dose response curve / RLU in untreated wells. As for the experimental part:
LXR agonists described herein were evaluated in a cell-based LXR responsive luciferase reporter assay. To generate the assay cell line, an LXR regulated luciferase reporter gene [Cignal Lenti LXR Reporter (luc) kit (Qiagen, Cat #CLS-001L)] was transduced into THP1 cells and the cells were selected for two weeks in puromycin. The lentivirus expresses the firefly luciferase gene under the control of a basal promoter and tandem repeats of the LXR transcriptional response element. The resulting cell line is referred to as THP1/LXR-Luc cells. For the assay, THP1/LXR-Luc cells were seeded onto 96-well plates at 40,000 cells/well in media containing RPMI supplemented with 10% FBS and penicillin/streptomycin and were then differentiated with 200 nM Phorbol Myristate Acetate (PMA) for 3 days. The media was subsequently removed and replaced with 80 μL of fresh media without PMA. Three-fold serial dilutions of free payloads were prepared in 100% DMSO, transferred to fresh growth media, and 20 μL were added to the cells at a final constant DMSO concentration of 0.2% and free payloads at final concentrations ranging from 100 nM to 0.015 nM. The last well in the plate served as blank control containing only the media and 0.2% DMSO (untreated well) and was plotted as a continuation of the 3-fold serial dilution. Forty-eight hours later, luciferase activity was determined after the addition of One-Glo™ reagent (Promega, Cat #E6130) to each well. Relative light units (RLUs) were measured on an Envision luminometer (PerkinElmer) and EC50 values were determined using a four-parameter logistic equation over a 10-point dose response curve (GraphPad Prism). The signal to noise (S/N) was determined by taking the ratio of the highest RLU on the dose response curve to the RLU in the untreated wells.

A further series deals with THP-1. Description: Activation of cholesterol efflux (BODIPY-cholesterol) in differentiated THP1 macrophages. The format is cell-based, human. How it is done:
The ability of anti-MSR1-LXR agonist ADCs to activate cholesterol efflux in a human macrophage cell line (THP-1; ATTC Catalog #TIB-202) were assessed using a fluorescent cholesterol analog. […] Cells were differentiated into macrophages by treatment with 100 nM Phorbol-12 myristate 13-acetate (Sigma, Catalog #P8139), which was added to the media (described above), for 96 hours. […] Percentage of BODIPY-cholesterol efflux was calculated using the following formula: [fluorescence in acceptor media/(fluorescence in acceptor media+fluorescence in cell lysate)]×100.

The nature of another series: Solubility in water. The format is physicochemical.
Series [2] can be described thus: Stability of isolated compound in buffer. The format is physicochemical. Particulars: HCl salt; even under basic buffer (pH>7). How it is done:
To a solution compound 141 (0.30 g, 0.33 mmol) in acetonitrile (5 mL) was added a solution of HCl in dioxane (4 N, 3 mL). The reaction mixture was stirred at room temperature for 3 hours until Boc was totally removed according to LCMS. The volatiles were removed, and the residue was purified by reversed phase flash chromatography (0-100% acetonitrile in water) to give compound 142 as HCl salt (0.19 g, 73% yield), as a white solid, which was not stable, even under basic buffer (pH>7). ESI m/z: 717.2 (M+H)^+.

The test system of series [3] is T1, LXR. The series can be described thus: THP1/LXR-Luc reporter assay, anti-MSR1 LXR agonist ADCs (Example 17). The format is cell-based, human. As to conditions: differentiated THP-1/LXR-Luc cells, Table 6.
Where [4] appears, read: Homo sapiens, THP-1, after 24 hours, read-out: cholesterol efflux EC50.
The mark [5] stands for this setting: Homo sapiens, differentiated THP-1 macrophages, 24-hour treatment, Table 8, read-out: Cholesterol Efflux activation EC50.

In general, EC50 refers to the concentration at which the effect is half-maximal. In the series with LXR [1], `C[C@]1(C(=O)NC(=O)[C@@]2(C)CCC[C@]3(C)c4cc(NC(=O)CO)ccc4CC[C@@H]23)CCC[C@]2(C)c3cc(O)ccc3CC[C@@H]12` [P17, (1S,4aS,10aR)-N-[(1S,4aS,10aR)-6-(2-hydroxyacetamido)-1,4a-dimethyl-1,2,3,4,4a,9,10,10a-octahydrophenanthrene-1-carbonyl]-6-hydroxy-1,4a-dimethyl-1,2,3,4,4a,9,10,10a-octahydrophenanthrene-1-carboxamide] registered an EC50 of 1.03 nM and a S/N of 12.5.
`C[C@]1(C(=O)NC(=O)[C@@]2(C)CCC[C@]3(C)c4cc(O)ccc4CC[C@@H]23)CCC[C@]2(C)c3cc(N)ccc3CC[C@@H]12` [P1, (1S,4aS,10aR)-N-[(1S,4aS,10aR)-6-Amino-1,4a-dimethyl-1,2,3,4,4a,9,10,10a-octahydrophenanthrene-1-carbonyl]-6-hydroxy-1,4a-dimethyl-1,2,3,4,4a,9,10,10a-octahydrophenanthrene-1-carboxamide]: the EC50 with THP-1 (setting [4]) came to 0.02 nM; in the series with THP-1 (setting [5]) it was 0.02 nM; in the series on LXR [1], 0.191 nM. Besides, the S/N in the series on LXR [1] came to 11.9.
In the series with LXR [1], `C[C@]1(C(=O)NC(=O)[C@@]2(C)CCC[C@]3(C)c4cc(NC(=O)COCNC(=O)CN)ccc4CC[C@@H]23)CCC[C@]2(C)c3cc(O)ccc3CC[C@@H]12` [P18, (1S,4aS,10aR)-N-[(1S,4aS,10aR)-6-{2-[(2-aminoacetamido)methoxy]acetamido}-1,4a-dimethyl-1,2,3,4,4a,9,10,10a-octahydrophenanthrene-1-carbonyl]-6-hydroxy-1,4a-dimethyl-1,2,3,4,4a,9,10,10a-octahydrophenanthrene-1-carboxamide] registered an EC50 of 2.78 nM and a S/N of 11.5.
The corresponding values for `C[C@]1(C(=O)NC(=O)[C@@]2(C)CCC[C@]3(C)c4cc(NC(=O)CO)ccc4CC[C@@H]23)CCC[C@]2(C)c3cc(N)ccc3CC[C@@H]12` [P14, (1S,4aS,10aR)-N-[(1S,4aS,10aR)-6-(2-hydroxyacetamido)-1,4a-dimethyl-1,2,3,4,4a,9,10,10a-octahydrophenanthrene-1-carbonyl]-6-amino-1,4a-dimethyl-1,2,3,4,4a,9,10,10a-octahydrophenanthrene-1-carboxamide] are 0.152 nM and 10.8.
The corresponding values for `CC(C)(C)OC(=O)Nc1ccc2c(c1)[C@@]1(C)CCC[C@](C)(C(=O)NC(=O)[C@@]3(C)CCC[C@]4(C)c5cc(O)ccc5CC[C@@H]34)[C@@H]1CC2` [P15, tert-Butyl N-[(4bS,8S,8aR)-8-({[(1S,4aS,10aR)-6-hydroxy-1,4a-dimethyl-1,2,3,4,4a,9,10,10a-octahydrophenanthren-1-yl]formamido}carbonyl)-4b,8-dimethyl-4b,5,6,7,8,8a,9,10-octahydrophenanthren-3-yl]carbamate] are 72.9 nM and 8.8.
In the series with LXR [1], `C[C@]1(C(=O)NC(=O)[C@@]2(C)CCC[C@]3(C)c4cc(N)c(O)cc4CC[C@@H]23)CCC[C@]2(C)c3cc(O)ccc3CC[C@@H]12` [P19, (1S,4aS,10aR)-N-[(1S,4aS,10aR)-6-amino-7-hydroxy-1,4a-dimethyl-1,2,3,4,4a,9,10,10a-octahydrophenanthrene-1-carbonyl]-6-hydroxy-1,4a-dimethyl-1,2,3,4,4a,9,10,10a-octahydrophenanthrene-1-carboxamide] registered a half-maximal effective concentration (EC50) of 0.564 nM and a S/N of 11.4.
As usually defined, the solubility is the concentration that dissolves in the medium under given conditions. A low value points to little dissolved substance. `CC(C)[C@H](NC(=O)[C@@H](CCCCNC(=O)COC1CCCCCc2c1nnn2CC1OC2OC3C(CO)OC(OC4C(CO)OC(OC5C(CO)OC(OC6C(CO)OC(OC7C(CO)OC(OC1C(O)C2O)C(O)C7O)C(O)C6O)C(O)C5O)C(O)C4O)C(O)C3O)NC(=O)CCOCCOCCOCCOCCNC(=O)CCC(=O)N1Cc2ccccc2C#Cc2ccccc21)C(=O)N[C@@H](CCCNC(N)=O)C(=O)Nc1ccc2c(c1)[C@@]1(C)CCC[C@](C)(C(=O)NC(=O)[C@@]3(C)CCC[C@]4(C)c5cc(N)ccc5CC[C@@H]34)[C@@H]1CC2` (stereo partly drawn) [LP2] displayed a solubility in the series “Solubility in water” of less than 100 µg/mL.
`C[C@]1(C(=O)NC(=O)[C@@]2(C)CCC[C@]3(C)c4cc(N)ccc4CC[C@@H]23)CCC[C@]2(C)c3cc(N)ccc3CC[C@@H]12` [P2, (1S,4aS,10aR)-6-Amino-N-((1S,4aS,10aR)-6-amino-1,4a-dimethyl-1,2,3,4,4a,9,10,10a-octahydrophenanthrene-1-carbonyl)-1,4a-dimethyl-1,2,3,4,4a,9,10,10a-octahydrophenanthrene-1-carboxamide]: the EC50 with THP-1 (setting [4]) was 0.014 nM; in the series on THP-1 (setting [5]), 0.014 nM; in the series on LXR [1], 0.45 nM. Further, the S/N with LXR [1] came out at 13.1.
As for `C[C@H](N)C(=O)Nc1ccc2c(c1)[C@@]1(C)CCC[C@](C)(C(=O)NC(=O)[C@@]3(C)CCC[C@]4(C)c5cc(N)ccc5CC[C@@H]34)[C@@H]1CC2` [P13, (1S,4aS,10aR)-N-[(1S,4aS,10aR)-6-amino-1,4a-dimethyl-1,2,3,4,4a,9,10,10a-octahydrophenanthrene-1-carbonyl]-6-[(2S)-2-aminopropanamido]-1,4a-dimethyl-1,2,3,4,4a,9,10,10a-octahydrophenanthrene-1-carboxamide], in the series on LXR [1], the EC50 came out at 0.0788 nM and the S/N came to 11.9.
In the series on LXR [1], `C[C@H](NC(=O)[C@@H](N)CCC(=O)O)C(=O)Nc1ccc2c(c1)[C@@]1(C)CCC[C@](C)(C(=O)NC(=O)[C@@]3(C)CCC[C@]4(C)c5cc(O)ccc5CC[C@@H]34)[C@@H]1CC2` [P16, (4S)-4-Amino-4-{[(1S)-1-{[(4bS,8S,8aR)-8-({[(1S,4aS,10aR)-6-hydroxy-1,4a-dimethyl-1,2,3,4,4a,9,10,10a-octahydrophenanthren-1-yl]formamido}carbonyl)-4b,8-dimethyl-4b,5,6,7,8,8a,9,10-octahydrophenanthren-3-yl]carbamoyl}ethyl]carbamoyl}butanoic acid] returned an EC50 of 0.508 nM and a S/N of 11.5.
On to `CNCCN(CCOCCO)C(=O)Oc1ccc2c(c1)[C@@]1(C)CCC[C@](C)(C(=O)NC(=O)[C@@]3(C)CCC[C@]4(C)c5cc(N)ccc5CC[C@@H]34)[C@@H]1CC2.Cl.Cl` [compound 142, (4bS,8S,8aR)-8-((1S,4aS,10aR)-6-Amino-1,4a-dimethyl-1,2,3,4,4a,9,10,10a-octahydrophenanthrene-1-carbonylcarbamoyl)-4b,8-dimethyl-4b,5,6,7,8,8a,9,10-octahydrophenanthren-3-yl 2-(2-hydroxyethoxy)ethyl(2-(methylamino)ethyl)carbamate], for which the stability result in series [2] is listed as “not stable”.

B1: H1H21234N-N297Q-LP1 (conjugate)
VH: QVQLQESGPGLVKPSETLSLTCTVTGGSISRNYWSWIRQPPGKGLEWIGYIYYSGSIDYNPSLKSRVTISVDTSKNQFSLKLSSMTAADTAVYYCARDRWNWKYGMDVWGQGTTVIVSS
VL: EIVLTQSPGTLSLSPGERATLSCRASQTVRNNYLAWYHQKPGQAPRLLIYGASSRATGIPDRFSGSGSGTDFTLTISRLEPEDFTVYYCHQYGNSPWTFGQGTKMEIKR
On to B1, for which the EC50 in the series on LXR [3] came to 0.738 nM; in the series on THP-1 (after 24 hours, read-out: cholesterol efflux EC50), 0.098 nM. In the series on LXR [3], this molecule yielded a S/N of 11.8.
